Article PMC9850094, “Chemical synthesis of a reported p47phox/p22phox inhibitor and characterization of its instability and irreproducible activity” (Frontiers in Pharmacology, 2023)
Where no end group is shown, it is not given here. TAMRA = carboxytetramethylrhodamine label; Cy5 = cyanine 5 label

Key:
[1] = tested on: p47phox/p22phox interaction; parameters: method as in Smith et al., 2012; details: ref Smith et al., 2012; cited from earlier work
[2] = target: T1, p47phox^SH3A−B (Homo sapiens, UniProt P14598); test: Covalent binding assay (LC−MS); details: 15 min
T1 sequence (P14598 151-286): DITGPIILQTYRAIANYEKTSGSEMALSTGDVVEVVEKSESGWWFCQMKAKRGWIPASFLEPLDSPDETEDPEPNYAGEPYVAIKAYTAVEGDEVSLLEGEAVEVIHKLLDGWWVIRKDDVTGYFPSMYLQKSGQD
Experimental: LC−MS spectra were obtained using the same LC–MS system, solvents, and gradient as for the chemical stability assay, but here the LC–MS was installed with a Poroshell C18 reverse-phase column (Agilent, Poroshell, 300SB-C18, 2.1 × 75 mm). Injection volume was 10 µL and the protein eluted at 3.2 min.
Mass source parameters: Ion polarity, positive mode; drying gas flow, 12 L/min at 250 °C; nebulizer, 35 psig; VCap, 3000 V; Fragmentor, 70 V; mass scan range, 100–2000 m/z. Mass peak deconvolution was carried as described in literature (Winkler, 2010) (https://www.bioprocess.org/esiprot/esiprot_form.php). (A) LC–MS […]
corresponding to the theoretical MW of p47phox SH3A–B (17300.38 Da). (B) LC–MS data of 0.2 mg/mL […]
17300.3 Da and another (see red arrows) is a protein adduct with MW of 17421.9 ± 0.29 Da (ΔMW relative to […]
p47phoxSH3A–B is 122 Da).
MW of 17574.0 Da ± 0.23 Da (ΔMW relative to p47phoxSH3A–B is 274 Da corresponding to an ebselene-protein […]
with p47phoxSH3A–B. Similar to a phenolic Mannich base, the reaction involves an LMH001-derived quinone methide intermediate that reacts with nucleophiles from the protein leading to a +122 Da protein adduct.
(1 picture or pasted object on this page, not shown here)

[3] = target: SH3A−B domain of p47phox; parameters: method as in Garsi et al., 2022; details: ref Garsi et al., 2022; read-out: Kd (SPR); cited from earlier work
[4] = target: T2, p47phox^SH3A−B (human His-tagged p47phox^151−286) (Homo sapiens, UniProt P14598); test: Fluorescence polarization (FP) competition assay; assay type: binding; details: for Ki: over 2–20 min
T2 construct: human His-tagged p47phox^151−286
T2 sequence (P14598 151-286): T1 sequence (P14598 151-286)
Experimental: Synthesized compounds were then tested for their ability to inhibit the interaction between p47phox^SH3A−B and the fluorescent peptide probes in 1×HBST (2% DMSO). The non-fluorescent p22phox^151−162 peptide (Sequence: Ac-[…]-NH2) was used as a control. […] FP values were fitted to the equation Y = Bottom + (Top-Bottom)/{1 + 10^[(LogIC50-X)*HillSlope]}, where X is the logarithmic value of the compound concentration. Hereby, the IC50 value was obtained, which together with the K d value, probe and p47phox^SH3A−B concentrations was used to calculate the theoretical competitive inhibition constant, the K i value. […] Here, 5 and 8 µM of p47phox^SH3A−B concentration was used for Cy5-p22phox^149−162 and TAMRA-p22phox^151−162, respectively.

[5] = target: T3, NOX2 (Homo sapiens, UniProt P04839); test: NOX2 cell-based assay (WST1, PMA-activated PLB-985 cells); details: PMA-stimulated differentiated PLB-985 cells, superoxide (WST1)
T3 construct: endogenous in cells
T3 sequence (P04839 2-570 limits assumed): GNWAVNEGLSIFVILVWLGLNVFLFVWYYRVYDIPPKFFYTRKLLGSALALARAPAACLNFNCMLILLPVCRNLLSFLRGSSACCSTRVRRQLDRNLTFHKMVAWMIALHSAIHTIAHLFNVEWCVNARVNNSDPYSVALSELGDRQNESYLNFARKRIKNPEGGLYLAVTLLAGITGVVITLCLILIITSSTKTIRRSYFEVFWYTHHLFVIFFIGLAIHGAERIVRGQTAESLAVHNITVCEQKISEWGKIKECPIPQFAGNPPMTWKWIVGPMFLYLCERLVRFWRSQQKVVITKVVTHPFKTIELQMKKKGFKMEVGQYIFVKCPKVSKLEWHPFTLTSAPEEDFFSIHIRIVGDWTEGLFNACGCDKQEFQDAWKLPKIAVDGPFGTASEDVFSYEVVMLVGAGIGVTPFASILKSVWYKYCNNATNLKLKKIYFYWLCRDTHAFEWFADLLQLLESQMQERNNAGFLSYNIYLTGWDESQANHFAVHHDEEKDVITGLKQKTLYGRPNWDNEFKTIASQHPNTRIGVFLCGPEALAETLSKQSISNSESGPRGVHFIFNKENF
T3 sequence (P13498 2-195 partner limits assumed): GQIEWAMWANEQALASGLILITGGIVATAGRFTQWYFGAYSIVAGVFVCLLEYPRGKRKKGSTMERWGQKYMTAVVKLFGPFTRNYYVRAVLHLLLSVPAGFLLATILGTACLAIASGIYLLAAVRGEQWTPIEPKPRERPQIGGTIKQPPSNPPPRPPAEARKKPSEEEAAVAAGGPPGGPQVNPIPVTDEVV
Experimental: The assay measures extracellular superoxide generated by PMA-activated NOX2 in PLB-985 cells using the cell-impermeable tetrazolium salt WST1 as probe ([Tan and Berridge, 2000]). […] NOX2 was activated by addition of phorbol-12-myristate-13-acetate PMA (10 nM final). Absorbance (OD440) was measured with a Spectramax Paradigm reader (Molecular Devices) for 3 h. To graph the data, the rate of superoxide was calculated for the first hour.

[6] = parameters: method as in Fan et al., 2022; details: mice, iv injection; ref Fan et al., 2022; cited from earlier work
[7] = Chemical stability assay (LC−MS); assay type: physicochemical
Experimental: A binary solvent system of buffer A (H2O/acetonitrile (MeCN)/formic acid, 95:5:0.1 v/v%) to buffer B (MeCN/formic acid, 99.9:0.1 v/v%) and a flow rate of 1 mL/min was used. Injection volume was 5 µL. Total sample run time was 6 min, and the percentage of buffer B increases from 0% to 100% during 0.25–4.25 min, maintains at 100% until 5 min, then decreases to 0% at 5.10 min, and stays at 0% until 6 min.

[8] = tested on: GST-p47phox^SH3A−B; parameters: method as in Fan et al., 2022; details: GST-p47phox^SH3A−B / FITC-labelled p22phox^151-162 peptide, ref Fan et al., 2022, cited from earlier work
[9] = tested on: NOX2; parameters: method as in Fan et al., 2022; details: COS-phox cells activated by PMA; ref Fan et al., 2022; read-out: IC50, NOX2 superoxide inhibition; cited from earlier work
[10] = target: T4, p47phox^SH3A-B (human His-tagged p47phox^151-286) (human, UniProt P14598 151-286); test: FP; 1×HBST
T4 chain: T1 sequence (P14598 151-286)

[11] = target: T4, p47phox^SH3A-B (human His-tagged …); test: FP; in water
[12] = tested as isolated compounds, 1×HBST, Cy5 or TAMRA probe, 2 or 20 min

In the case of `O=c1c2ccccc2[se]n1-c1ccccc1` [Ebselen], the IC50 [1] is given as 0.3 µM, the “Protein mass increase (ΔMW relative to p47phox^SH3A–B)” value ([2]; 200 µM compound, 0.2 mg/mL p47phox^SH3A−B, HBST) is given as 274 Da and the “Conversion of p47phox^SH3A−B to molecular adduct” value ([2]; 200 µM, HBST) is given as “fully converted”.

For `N=C(N)NCCC[C@@H](CCCCC1CC1)NC(=O)[C@@H]1CCCN1C(=O)[C@@H]1CCCN1C(=O)[C@@H]1CCCN1C(=O)CCC(=O)Nc1cccc(-c2ccc(Cl)c(Cl)c2)c1` [compound 2], the Kd [3] is given as 0.043 µM.

With `OCc1cccc(O)c1O` [compound 15] the “Activity in the FP assay” value [4, 12] was “inactive” and the IC50 ([5]; read-out: IC50, NOX2 inhibition) was 63 µM.

In the case of Ac-PPTNPPPRPPAE-NH2 [p22phox^151–162], the Ki ([4]; 1×HBST, probe Cy5-p22phox^149–162) is reported as 14 to 22 µM, the Ki ([4]; 1×HBST, probe TAMRA-p22phox^151–162) is reported as 17 to 31 µM and the Ki ([4]; water, probe Cy5-p22phox^149–162) is reported as 170 to 220 µM. For the same molecule, the Ki ([4]; water, probe TAMRA-p22phox^151–162) was 140 to 155 µM.

For `O=C(O)c1ccc(O)c(CO)c1` [compound 13], the “Activity in the FP assay” value [4, 12] was “inactive” and the “IC50, NOX2 inhibition” value [5] was “no activity”.

In the case of `O=C(OCc1cccc(O)c1O)c1ccc(O)c(CO)c1` [LMH001], the half-life [6] is given as 2.52 min, the “Activity in the FP assay” value ([4]; up to 400 µM, 1×HBST, Cy5 or TAMRA probe, 2 or 20 min incubation) is given as “did not show any activity” and the “Activity in the FP assay in pure water” value ([4]; water instead of 1×HBST, Cy5 or TAMRA probe, 2 or 20 min) is given as “did not result in any measurable activity”. The “Degradation in the HBST buffer as function of pH” value ([7]; 1×HBST pH 6 to 8, 30 min) was “increased with pH”, the LMH001 remaining ([7]; H2O, 5 min) was 86% and the LMH001 remaining ([7]; H2O, 30 min) was 76%. The LMH001 remaining ([7]; HBST, 5 min, 100 µM, relative to MeCN 5 min) was 13%, the LMH001 remaining ([7]; HBST, 30 min) was 3% and the “p47phox^SH3A−B modified” value ([2]; 200 µM (17-fold molar excess), HBST) was 20%–30%. The “Conversion of p47phox^SH3A−B to adduct” value ([2]; 200 µM, water) was “negligible conversion”, the IC50 [8] was 0.149 µM and the Ki ([8]; read-out: Ki (FP)) was 0.054 µM. For the same molecule, the IC50 [9] was […].

Cy5-KQPPTNPPPRPPAE [cyanine 5 (Cy5)-p22phox^149-162] showed a Kd [10] of 1.9 µM and a Kd [11] of 12 µM.

In the case of {TAMRA}-PPTNPPPRPPAE [carboxytetramethylrhodamine (TAMRA)-p22phox^151-162], the Kd [10] is reported as 7 µM and the Kd [11] is reported as 40 µM.
